Experimental data as given in paper PMC11855827, “High-Throughput Screening of Five Compound Libraries for Anthelmintic Activity and Toxicity Leads to the Discovery of Two Flavonoid Compounds” (International Journal of Molecular Sciences, 2025).
Several values for one entry are separate records, joined by “and”; a condition that tells them apart may be missing. Identical values can stand only once. Like-named read-outs stand apart in the source and are kept apart here.

Tested on: C. elegans
[1] = Table S2, C. elegans SS assay, 110 μM, averages of 4 data points
[2] = Table S2, C. elegans SS assay, 110 μM, 24 h, averages of 4 data points

Compound	Percentage of motility inhibition 0 h [1] [%]	Percentage of motility inhibition 24 h [2] [%]	Percentage of motility inhibition 24 h (110 µM)
O=c1cc(-c2ccccc2)oc2cc(O)cc(O[C@@H]3O[C@H](CO)[C@@H](O)[C@H](O)[C@H]3O)c12 [Toringin]	0	2	
CO[C@@H]1[C@@H](OC(N)=O)[C@@H](O)[C@H](Oc2ccc3c([O-])c(NC(=O)c4ccc(O)c(CC=C(C)C)c4)c(=O)oc3c2C)OC1(C)C.[Na+] [Novobiocin (sodium)]	6	6	
CC(=O)O[C@@H]1CC[C@]2(C)C3=C(CC[C@H]2C1(C)C)[C@]1(C)CC[C@H]([C@@H](CCC=C(C)C)C(=O)O)[C@@]1(C)CC3 [Tsugaric acid A]	12	12	
CN1C[C@@H]2C[C@H]1CN2c1cc2c(cc1F)c(=O)c(C(=O)O)cn2C1CC1.CS(=O)(=O)O [Danofloxacin (mesylate)]	0	15	
O=c1cccc2n1C[C@@H]1CNC[C@H]2C1 [Cytisinicline]			0% and 3%
C[C@H](CCC(=O)NCC(=O)O)[C@H]1CC[C@H]2[C@@H]3CC[C@@H]4C[C@H](OS(=O)(=O)O)CC[C@]4(C)[C@H]3CC[C@]12C [Glycolithocholic acid 3-sulfate]	13	33	
CCCCCCCCCCCCCCCCCC(=O)NCc1ccccc1 [N‐Benzyloctadecanamide]	35	17	
C=C1CCC2C(C=C(C)C(=O)C3(OC(C)=O)CC(C)C(OC(=O)c4ccccc4)C3C1OC(C)=O)C2(C)C (stereo not drawn) [5,15-Diacetyl-3-benzoyllathyrol]	30	32	
(+)‐Sparteine (sulfate pentahydrate)	0	0	
C[C@@H](O)[C@H]1C(=O)N2C(C(=O)O)=C(S[C@@H]3CN[C@H](C(=O)N(C)C)C3)[C@H](C)[C@H]12.O.O.O [Meropenem (trihydrate)]	12	9	
Oxypaeoniflorin	0	0	
C[C@H]1O[C@H](OC2[C@@H](O)[C@@H](O)C(O)[C@H](O)[C@H]2O)[C@@H](N)C[C@@H]1N=C(N)C(=O)O.Cl.O (stereo partly drawn) [Kasugamycin (hydrochloride hydrate)]	12	0	
(±)-Huperzine A	0	16	
C[C@H](CCC(=O)O)[C@H]1CC(=O)[C@@]2(C)C3=C(C(=O)C[C@]12C)[C@@]1(C)CCC(=O)C(C)(C)[C@@H]1C[C@@H]3O [Lucideric acid A]	0	20	
CC(C)(O[C@@H]1O[C@H](CO)[C@@H](O)[C@H](O)[C@H]1O)[C@@H]1CC[C@](C)([C@H]2[C@@H](O)C[C@@]3(C)[C@@H]4C[C@H](O)[C@H]5C(C)(C)[C@@H](O[C@@H]6OC[C@@H](O)[C@H](O)[C@H]6O)CC[C@@]56C[C@@]46CC[C@]23C)O1 [Isoastragaloside IV]	0	0	
C[C@@H]1CCO[C@H]2Cn3cc(C(=O)NCc4ccc(F)cc4F)c(=O)c([O-])c3C(=O)N12.[Na+] [Dolutegravir (sodium)]	0	17	

Compound	Percentage of motility inhibition 0 h [1] [%]	Percentage of motility inhibition 24 h [2] [%]	Percentage of motility inhibition 24 h (110 µM)
CC1(C)C2=CCCC(C)(C)[C@]23CC[C@H]1C3 [Isolongifolene]	2	39	
COc1c(O)cc2oc(-c3ccc(O)c(O)c3)cc(=O)c2c1O [Nepetin]	4	17	
COc1ccc(-c2cc(=O)c3c(OC)cc(OC)c(OC)c3o2)cc1 [6‐Demethoxytangeretin]	31	8	
COc1c(O[C@@H]2O[C@H](CO[C@@H]3OC[C@@H](O)[C@H](O)[C@H]3O)[C@@H](O)[C@H](O)[C@H]2O)cc2occ(-c3ccc(O)cc3)c(=O)c2c1O [Tectorigenin 7‐O‐Xylosyl Glucoside]	0	1	
C=C1CC[C@]2(C)CC[C@]3(C)[C@H](CC[C@@H]4[C@@]5(C)CC[C@H](O)C(C)(C)[C@@H]5CC[C@]43C)[C@H]2[C@@H]1C [Taraxasterol]	1	2	
N=C(N)NCCC[C@H](N)C(=O)O.N[C@@H](CCC(=O)O)C(=O)O [L-Arginine (L-glutamate)]	22	0	
C[C@H](CC[C@@H](O[C@@H]1O[C@H](CO)[C@@H](O)[C@H](O)[C@H]1O[C@@H]1O[C@H](CO)[C@@H](O)[C@H](O)[C@H]1O)C(C)(C)O)[C@H]1CC[C@@]2(C)[C@@H]3CC=C4[C@@H](CC[C@H](O[C@@H]5O[C@H](CO)[C@@H](O)[C@H](O)[C@H]5O)C4(C)C)[C@]3(C)[C@H](O)C[C@]12C [Mogroside III-E]	25	17	
CC(=O)O[C@H]1C(=O)[C@@]2(C)[C@H]([C@H](OC(=O)c3ccccc3)[C@]3(O)C[C@H](OC(=O)[C@H](O)[C@@H](NC(=O)c4ccccc4)c4ccccc4)C(C)=C1C3(C)C)[C@]1(OC(C)=O)CO[C@@H]1C[C@@H]2O [7-epi-Taxol]	13	11	
Cl.N=C(N=C(N)N)N1CCOCC1 [Moroxydine (hydrochloride)]	13	8	
CC1(C)CC[C@]2(C(=O)O)CC[C@]3(C)C(=CC[C@@H]4[C@@]5(C)C[C@H](O)[C@H](O)[C@@](C)(C(=O)O)[C@@H]5CC[C@]43C)[C@@H]2C1 [Medicagenic acid]	0	5	
COc1ccc([C@@H]2COc3cc(O[C@@H]4O[C@H](CO)[C@@H](O)[C@H](O)[C@H]4O)ccc3C2)c(O)c1OC [Isomucronulatol 7‐O‐glucoside]	8	10	
COCCNC(=O)Nc1ccc2nc(-c3cccs3)c(-c3cccs3)nc2c1 [Ac‐CoA Synthase Inhibitor1]	16	8	
C[C@H]1CC[C@@H]2N(C1)C[C@H]1[C@@H]3C[C@H]4[C@@H](CC(=O)[C@H]5C[C@H](O)CC[C@@]54C)[C@@H]3CC[C@H]1[C@]2(C)O [Yubeinine]	13	0	
O=c1cc(-c2ccc(O)cc2)oc2c([C@@H]3OC[C@@H](O)[C@H](O)[C@H]3O)c(O)c([C@@H]3O[C@H](CO)[C@@H](O)[C@H](O)[C@H]3O)c(O)c12 [Vicenin 3]	15	3	
C=C[C@]1(C)C[C@@H](OC(=O)CSCCN(CC)CC)[C@]2(C)[C@H](C)CC[C@]3(CCC(=O)[C@H]32)[C@@H](C)[C@@H]1O.O=C(O)/C=C/C(=O)O [Tiamulin (fumarate)]	9	9	
Nc1ncnc(N[C@@H]2O[C@H](CO)[C@@H](O)[C@H]2O)c1[N+](=O)[O-] [Clitocine]	0	4	
